Calls of active or inactive are those of the source. The calls are words filed in the database; no cut-off is given here.

For test [1], the target named is T1, Cytidine deaminase (Homo sapiens, UniProt P32320). Put plainly: Compound was tested for its binding affinity against human cytidine deaminase;16-fold less potent than that of zebularine (16.5 uM).
Test [2] deals with T1, Cytidine deaminase. Nature of the test: Inhibitory concentration of mouse or human Cytidine deaminase; No inhibition.

T1 sequence (P32320 whole entry): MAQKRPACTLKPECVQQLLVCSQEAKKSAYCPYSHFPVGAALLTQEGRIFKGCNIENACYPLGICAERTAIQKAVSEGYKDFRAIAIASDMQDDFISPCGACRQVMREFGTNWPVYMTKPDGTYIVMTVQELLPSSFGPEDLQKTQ

In turn, `O=c1ncccn1C1CC(CO)[C@@H](O)[C@H]1O` (some centres not stated) registered a fold less potent than zebularine at Cytidine deaminase [1] of 16.

Turning to `O=c1ncccn1[C@H]1[C@H](O)[C@H](O)C2(CO)C[C@H]12` (single isomer, unassigned), the inhibition entry on Cytidine deaminase [2] is “inactive”.

For the origin of these results see ChEMBL document CHEMBL1131016, “Carbocyclic analogues of the potent cytidine deaminase inhibitor 1-(beta-D-ribofuranosyl)-1,2-dihydropyrimidin-2-one (zebularine)” (J Med Chem, 1998).
